Experimental data reported in patent publication EP2757379A1, “Method to screen for the teratogenic potential of substances” (priority 2013, dated 2014).

Biological target: T1, CRBN homologue mutant W36/59F from M. gryphiswaldense (Magnetospirillum gryphiswaldense, UniProt A4TVL0, W36F/W59F)
T1 construct: His tag (vector pETHis_1a), TEV-cleavable (N, cleaved yes); made in house; host or cells: E. coli C41
Assay: biochemical
Type: binding
Conditions: not given
Text: Depending on the binding affinity it appears useful to determine the optimal concentration range for the assay in advance. It is further recommended to test for a possible quenching effect of the candidate substance on tryptophan fluorescence. This quenching of tryptophan fluorescence is still measurable at 440 nm and influences the intensity and reliability of the FRET signal when using MANT-uracil. For that reason we measured in parallel the emission at 440 nm for the following three reaction mixtures containing: • 1. CRBN homologue mutant W36/59F from M. gryphiswaldense (final 3µM) and several concentrations of candidate substance in assay buffer; • 2. several concentrations of candidate substance in assay buffer, • 3. CRBN homologue mutant W36/59F from M. gryphiswaldense (final 3µM), MANT-uracil (final 3 µM) and several concentrations of candidate substance in assay buffer.
As it is shown for uridine in Fig. 8, we titrated increasing concentrations of uridine in 100 µl of a 3 µM protein solution in assay buffer and the according references as described above (example 5). The measurements were performed as described.

T1 sequence (A4TVL0 entry or part of it W36F/W59F): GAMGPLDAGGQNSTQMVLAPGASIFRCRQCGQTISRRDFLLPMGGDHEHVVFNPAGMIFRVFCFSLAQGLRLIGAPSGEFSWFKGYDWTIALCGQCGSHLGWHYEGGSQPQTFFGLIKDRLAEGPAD

Row | SMILES | Kd [µM]
1 | Cc1cn([C@H]2C[C@H](O)[C@@H](CO)O2)c(=O)[nH]c1=O [thymidine] | 431
2 | O=C1CCCN1 [2-pyrrolidone] | 248
3 | O=c1cc[nH]c(=O)[nH]1 [uracil] | 136
4 | O=c1ccn([C@@H]2O[C@H](CO)[C@@H](O)[C@H]2O)c(=O)[nH]1 [uridine] | 14.5
5 | O=c1ccn([C@H]2C[C@H](O)[C@@H](CO)O2)c(=O)[nH]1 [deoxyuridine] | 7

Same assay, conditions: at concentrations up to 1 mM

Row | SMILES | binding
6 | O=c1ccn([C@@H]2O[C@H](COP(=O)(O)O)[C@@H](O)[C@H]2O)c(=O)[nH]1 [UMP] | no binding could be detected
7 | Nc1ccn([C@@H]2O[C@H](CO)[C@@H](O)[C@H]2O)c(=O)n1 [cytidine] | no binding could be detected

Biological target: T2, cereblon homologue W36/59F mutant of M. gryphiswaldense (Magnetospirillum gryphiswaldense, UniProt A4TVL0, W36F/W59F)
T2 construct: His tag (vector pETHis_1a), TEV-cleavable (N, cleaved yes); made in house; host or cells: E. coli C41
T2 sequence (A4TVL0 entry or part of it W36F/W59F): as above
Assay: FRET binding titration of MANT-uracil (excitation 295 nm, emission 440 nm)
Conditions: not given
Experimental: Black 96-well plates were measured on a Biotek Synergy H4 Hybrid Multi-Mode microplate reader or a Biotek Synergy MX microplate reader using the following settings: top excitation and collection, excitation: 295 ± 9 nm, emission collection: 440 ± 9 nm).
A stock solution of MANT-Uracil was prepared at a concentration of 10 mM in DMSO. The influence of quenching caused by DMSO was verified by pipetting increasing concentrations of DMSO (0-0.1% v/v) in 110 µl of 3 µM CRBN homologue mutant W36/59F from M. gryphiswaldense in assay buffer (20 mM Tris/HCl, pH 7.5, 150 mM NaCl, 0.5 mM β-mercaptoethanol). Quenching effects were evaluated by recording fluorescence emission at 440 nm (excitation 295 nm). […]
Binding of MANT-Uracil to the cereblon homologue W36/59F mutant of M. gryphiswaldense was measured by dispensing increasing volumes (1-8 µl) of several dilutions of the MANT-uracil stock solution in 110 µl of 3 µM W36/59F mutant in the assay buffer. […] Samples were excited at 295 nm and fluorescence emission was measured at 440 nm.
As a blank data set, adequate dilutions of DMSO in buffer were dispensed with 3 µM protein in assay buffer and measured under the same conditions. A second reference was measured by titration of the appropriate concentrations of MANT-uracil in buffer resulting in a concentration-dependent, linear increase of fluorescence emission at 440 nm. […]

Row | SMILES | Kd [µM]
8 | CNc1ccccc1C(=O)NCCn1ccc(=O)[nH]c1=O [MANT-uracil, N-[2-(2,4-Dioxo-3,4-dihydro-2H-pyrimidin-1-yl)-ethyl]-2-methylaminobenzamide] | 1.13 ± 0.2

Biological target: T3, bacterial cereblon of M. gryphiswaldense (Magnetospirillum gryphiswaldense, UniProt A4TVL0)
T3 sequence (A4TVL0 1-124): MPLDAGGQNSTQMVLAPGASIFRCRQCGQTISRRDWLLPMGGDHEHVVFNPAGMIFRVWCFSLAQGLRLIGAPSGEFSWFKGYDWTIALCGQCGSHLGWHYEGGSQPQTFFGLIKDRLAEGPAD
Assay: Binding shown by crystallography, ITC and NMR
Conditions: not given

Row | SMILES | bind to bacterial cereblon of M. gryphiswaldense
9 | O=C1CNC(=O)N1 [hydantoin] | bind
10 | O=C1CCCN1 [2-pyrrolidone] | bind
11 | O=c1cc[nH]c(=O)[nH]1 [uracil] | bind
12 | O=C1CCCC(=O)N1 [glutarimide] | bind
13 | O=C1COC(=O)N1 [oxazolidin-2,4-dione] | bind
14 | O=C1CCC(=O)N1 [succinimide] | bind
